From article PMC9950073, “Alleviation of arthritis through prevention of neutrophil extracellular traps by an orally available inhibitor of protein arginine deiminase 4” (Scientific Reports, 2023) come the findings set out here.

Several values for one entry are separate records, joined by “and”; a condition that tells them apart may be missing. Identical values can stand only once.

Series [1] concerns the target T1, recombinant human PAD4 enzyme (Homo sapiens, UniProt Q9UM07).
T1 construct: Full-length recombinant human PAD4 used in the assay was produced at Jubilant Biosys Ltd, Bangalore; made in house
Nature of the series: PAD4 biochemical assay measuring ammonia release. Conditions: 10 semi-log concentrations, figure box prints no unit, x axis μM, read-out: IC50, inhibition of PAD4 enzymatic activity. As to the method:
This assay relies on the ammonia produced when peptidylarginine deiminase 4 (PAD4) deiminates Nα-Benzoyl-L-arginine ethyl ester (BAEE) (Sigma, Catalog No: B4500), a non-natural substrate. The ammonia reacts with a detector i.e., ortho-phthaladehyde (OPA) (Sigma, Catalog No: P0657) resulting in a fluorescent product that is then analyzed at an excitation wavelength of 410 nm and an emission wavelength of 470 nm[33]. Full-length recombinant human PAD4 used in the assay was produced at Jubilant Biosys Ltd, Bangalore. PAD4 enzyme (125 nM) was diluted in Assay Buffer (100 mM HEPES, 50 mM NaCl, 2 mM DTT, 0.6 mg/ml BSA, pH7) and incubated with different concentrations of JBI-589 for 60 min at room temperature and then the reaction was initiated by the addition of substrate (1.5 mM BAEE (sigma) in 100 mM HEPES, 50 mM NaCl, 500 μM CaCl2, 2 mM DTT, pH7) then incubated with 1.5 mM BAEE substrate (Sigma) for another 60 min. The reaction was then stopped by the addition of detection buffer containing 50 mM EDTA, 2.6 mM ortho-phthalaldehyde and 2 mM DTT and fluorescence was measured. IC50 values were determined by sigmoidal dose–response curve (variable slope) using GraphPad Prism 5 software. […]

The next series relates to mouse neutrophils. Nature of the series: NET formation assay on neutrophils isolated from orally dosed mice. Type of series: in vivo. Conditions: 50 mg/kg orally for seven consecutive days. How it is done:
To determine the effects of JBI-589 on NET formation, an in vitro NET assay was performed. In mouse neutrophils, ionomycin stimulation induced more than 90% of H4Cit-positivity and NET formation in approximately 15% of neutrophils. […] To evaluate the in vivo effects, JBI-589 at 50 mg/kg or vehicle (water) was orally administered twice daily for seven consecutive days. Four hours after the last administration, mouse neutrophils were isolated, and then a NET formation assay was performed.
Mouse peripheral blood was collected by retro-orbital puncture in ethylenediaminetetraacetic acid (EDTA) anticoagulated buffer supplemented with 1% endotoxin-free BSA in sterile PBS. Neutrophils were isolated by Percoll gradient centrifugation as described previously. The purity of neutrophils was more than 90% as confirmed by the Wright-Giemsa stain.
Mouse or human neutrophils were resuspended in HEPES-supplemented phenol red-free RPMI1640 medium and 1.5 × 10^4 cells were seeded per well in a 96-well plate. After incubating for 20 min at 37 °C and 5% CO2, the cells were stimulated with vehicle control or ionomycin (Sigma, Catalog No: I24222) (4 µM) for 4 h. Neutrophils were fixed with 4% paraformaldehyde (PFA), washed and permeabilized (0.1% Triton X-100, 0.1% sodium citrate) for 10 min at 4 °C. Subsequently, neutrophils were incubated with blocking buffer (2.5% BSA, 0.5% Tween-20 in 1 × PBS) at room temperature for an hour followed by overnight incubation with the primary antibody against citrullinated histone H4 (H4Cit, 1:250, catalog number: 07-596, Millipore, Burlington, MA). After washing 3 times with PBS, neutrophils were incubated with Hoechst 33342 (1:10,000, catalog number: H3570, Invitrogen). Images were obtained with a Zeiss Axiovert 200 M wide-field fluorescence microscope (Zeiss, Oberkochen, Germany) with the Zeiss AxioVision software. The percentages of H4Cit positive neutrophils and neutrophil extracellular traps (NETs) were calculated by quantifying more than 200 randomly selected cells. […]

The next series concerns human neutrophils. Nature of the series: In vitro NET assay, human neutrophils. Type of series: cell-based. Conditions: 10 μM, ionomycin 4 µM 4 h. An excerpt:
All blood samples from healthy donors who participated in this study were obtained after informed consent in accordance with relevant guidelines and regulations given by the ACE Independent ethics committee for Jubilant Biosys Ltd and Office of Clinical Investigations at Boston Children’s Hospital. The ACE Independent ethics committee, Bangalore, approved the use of human whole blood/PBMC/Enriched Subset in Jubilant Biosys Ltd investigations, Drug Controller General of India (DCGI) Reg No. ECR/141/Indt/KA/2013. Briefly, 10 mL K2EDTA vacutainers were used to collect fresh blood from healthy donors (BD vacutainer, Catalog No: BD 367525). A total of 50 ml of blood was taken from a single, healthy human donor. Neutrophils were isolated from human blood using the EasySep Direct Human Neutrophil Isolation Kit, according to the manufacturer's instructions (Stem Cell Technology, Catalog No: 19666). […]
Mouse or human neutrophils were resuspended in HEPES-supplemented phenol red-free RPMI1640 medium and 1.5 × 10^4 cells were seeded per well in a 96-well plate. […] Images were obtained with a Zeiss Axiovert 200 M wide-field fluorescence microscope (Zeiss, Oberkochen, Germany) with the Zeiss AxioVision software. The percentages of H4Cit positive neutrophils and neutrophil extracellular traps (NETs) were calculated by quantifying more than 200 randomly selected cells. […]

Series [2] in a line: Microsomal stability, MLM. Format: in vitro ADME, mouse. Particulars: 1 µM, liver microsomes 0.5 mg/mL; one range given for HLM/MLM/DLM/RLM. As to the method:
Microsomal stability: Liver microsomes (0.5 mg/mL) from different species were incubated with JBI-589 (1 µM) with or without NADPH (1 mM) at 37 °C for 30 min in potassium phosphate buffer (pH 7.4) and then reaction was stopped with quenching solution (0.5% Formic acid in internal standard (IS) containing ACN). Resulting samples were centrifuged and supernatant was taken for LC–MS/MS analysis. Percent metabolism was calculated as follows: % Metabolized: [1 − (test area ratio/control area ratio)] *100.

Setting [3] is: neutrophils isolated 4 h after last administration, ionomycin 4 µM.

T1 sequence (Q9UM07 whole entry): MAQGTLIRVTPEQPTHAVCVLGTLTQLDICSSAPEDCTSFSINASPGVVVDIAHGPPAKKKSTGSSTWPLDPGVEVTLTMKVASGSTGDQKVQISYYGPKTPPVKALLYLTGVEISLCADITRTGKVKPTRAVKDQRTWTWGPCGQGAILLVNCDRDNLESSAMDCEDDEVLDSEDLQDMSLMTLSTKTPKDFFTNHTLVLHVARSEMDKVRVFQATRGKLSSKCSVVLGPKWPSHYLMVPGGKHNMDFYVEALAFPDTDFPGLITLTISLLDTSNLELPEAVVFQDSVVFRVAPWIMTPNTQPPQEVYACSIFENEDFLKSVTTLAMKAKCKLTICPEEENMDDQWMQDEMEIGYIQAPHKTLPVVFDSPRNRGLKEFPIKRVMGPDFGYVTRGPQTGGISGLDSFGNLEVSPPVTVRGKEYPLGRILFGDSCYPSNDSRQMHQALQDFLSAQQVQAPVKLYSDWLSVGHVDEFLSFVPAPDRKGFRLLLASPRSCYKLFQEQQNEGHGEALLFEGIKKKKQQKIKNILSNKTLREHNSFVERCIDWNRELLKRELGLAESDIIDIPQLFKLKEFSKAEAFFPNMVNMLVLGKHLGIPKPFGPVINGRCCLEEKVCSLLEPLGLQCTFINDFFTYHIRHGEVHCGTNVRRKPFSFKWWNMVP

Usually IC50 stands for the concentration that inhibits the measured activity by half. As for `Cc1c(-c2cc3ccccc3n2Cc2ccc(F)cc2)nc2cc(C(=O)N3CCC[C@@H](N)C3)ccn12` [JBI-589, (R)-(3-aminopiperidin-1-yl)(2-(1-(4-fluorobenzyl)-1H-indol-2-yl)-3-methylimidazo[1,2-a]pyridin-7-yl)methanone], the IC50 in series [1] was 0.122 µM and 0.123 µM. In the series with mouse neutrophils (setting [3]), the “H4Cit positivity compared with vehicle” value was “reduced both H4Cit positivity and NET formation significantly”; the “NET formation compared with vehicle” value was “reduced both H4Cit positivity and NET formation significantly”. In addition, the “percentage of H4Cit positive cells” value in the series on mouse neutrophils (vehicle 88%, p = 0.01) was found to be 83%. In the series with human neutrophils, the H4Cit positivity result is recorded as “the same effect was confirmed” and the NET formation entry was “the same effect was confirmed”. Moreover, in series [2], the “MLM % metabolized @ 30 min” value was 25-50%.
